{"source": "ChEMBL document CHEMBL1649168", "about": "“Susceptibility of human immunodeficiency virus type 1 to the maturation inhibitor bevirimat is modulated by baseline polymorphisms in Gag spacer peptide 1” (Antimicrob Agents Chemother, 2009)", "key": {"[1]": {"system": "Human immunodeficiency virus 1", "assay": "Antiviral activity against HIV1 HXB2 harboring SP1 Q6H/T8delta mutant gene relative to wild type", "assay_type": "functional"}, "[2]": {"system": "Human immunodeficiency virus 1", "assay": "Antiviral activity against HIV1 NL4.3 harboring SP1 Q6A mutant gene relative to wild type", "assay_type": "functional"}, "[3]": {"system": "Human immunodeficiency virus 1", "assay": "Antiviral activity against HIV1 PA108 harboring SP1 mutant gene relative to wild type", "assay_type": "functional"}, "[4]": {"system": "Human immunodeficiency virus 1", "assay": "Antiviral activity against HIV1 HXB2 harboring SP1 Q6H /V7A/T8delta mutant gene relative to wild type", "assay_type": "functional"}, "[5]": {"system": "Human immunodeficiency virus 1", "assay": "Antiviral activity against HIV1 HXB2 harboring SP1 Q6H mutant gene relative to wild type", "assay_type": "functional"}, "[6]": {"system": "Human immunodeficiency virus 1", "assay": "Antiviral activity against HIV1 NL4.3 harboring SP1 T8delta mutant gene relative to wild type", "assay_type": "functional"}, "[7]": {"system": "Human immunodeficiency virus 1", "assay": "Antiviral activity against HIV1 NL4.3 harboring SP1 A1V mutant gene relative to wild type", "assay_type": "functional"}, "[8]": {"system": "Human immunodeficiency virus 1", "assay": "Antiviral activity against HIV1 HXB2 harboring SP1 Q6H /V7A/T8N mutant gene relative to wild type", "assay_type": "functional"}, "[9]": {"system": "Human immunodeficiency virus 1", "assay": "Antiviral activity against HIV1 HXB2 harboring SP1 T8N mutant gene relative to wild type", "assay_type": "functional"}, "[10]": {"system": "Human immunodeficiency virus 1", "assay": "Antiviral activity against HIV1 HXB2 harboring SP1 T8delta mutant gene relative to wild type", "assay_type": "functional"}, "[11]": {"system": "Human immunodeficiency virus 1", "assay": "Antiviral activity against HIV1 PA118 harboring SP1 mutant gene relative to wild type", "assay_type": "functional"}, "[12]": {"system": "Human immunodeficiency virus 1", "assay": "Antiviral activity against HIV1 PA106 harboring SP1 mutant gene relative to wild type", "assay_type": "functional"}, "[13]": {"system": "Human immunodeficiency virus 1", "assay": "Antiviral activity against HIV1 PA119 harboring SP1 mutant gene relative to wild type", "assay_type": "functional"}, "[14]": {"system": "Human immunodeficiency virus 1", "assay": "Antiviral activity against HIV1 NL4.3 harboring SP1 V7delta mutant gene relative to wild type", "assay_type": "functional"}, "[15]": {"system": "Human immunodeficiency virus 1", "assay": "Antiviral activity against HIV1 PA115 harboring SP1 mutant gene relative to wild type", "assay_type": "functional"}, "[16]": {"system": "Human immunodeficiency virus 1", "assay": "Antiviral activity against HIV1 PA103 harboring SP1 mutant gene relative to wild type", "assay_type": "functional"}, "[17]": {"system": "Human immunodeficiency virus 1", "assay": "Antiviral activity against HIV1 PA105 harboring SP1 mutant gene relative to wild type", "assay_type": "functional"}, "[18]": {"system": "Human immunodeficiency virus 1", "assay": "Antiviral activity against HIV1 PA111 harboring SP1 mutant gene relative to wild type", "assay_type": "functional"}, "[19]": {"system": "Human immunodeficiency virus 1", "assay": "Antiviral activity against HIV1 PA107 harboring SP1 mutant gene relative to wild type", "assay_type": "functional"}, "[20]": {"system": "Human immunodeficiency virus 1", "assay": "Antiviral activity against HIV1 NL4.3 harboring SP1 V7M mutant gene relative to wild type", "assay_type": "functional"}, "[21]": {"system": "Human immunodeficiency virus 1", "assay": "Antiviral activity against HIV1 HXB2 harboring SP1 Q6H/T8N mutant gene relative to wild type", "assay_type": "functional"}, "[22]": {"system": "Human immunodeficiency virus 1", "assay": "Antiviral activity against HIV1 PA109 harboring SP1 mutant gene relative to wild type", "assay_type": "functional"}, "[23]": {"system": "Human immunodeficiency virus 1", "assay": "Antiviral activity against HIV1 PA100 harboring SP1 mutant gene relative to wild type", "assay_type": "functional"}, "[24]": {"system": "Human immunodeficiency virus 1", "assay": "Antiviral activity against HIV1 PA102 harboring SP1 mutant gene relative to wild type", "assay_type": "functional"}, "[25]": {"system": "Human immunodeficiency virus 1", "assay": "Antiviral activity against HIV1 HXB2 harboring SP1 mutant gene relative to wild type", "assay_type": "functional"}, "[26]": {"system": "Human immunodeficiency virus 1", "assay": "Antiviral activity against HIV1 PA117 harboring SP1 mutant gene relative to wild type", "assay_type": "functional"}, "[27]": {"system": "Human immunodeficiency virus 1", "assay": "Antiviral activity against HIV1 PA110 harboring SP1 mutant gene relative to wild type", "assay_type": "functional"}, "[28]": {"system": "Human immunodeficiency virus 1", "assay": "Antiviral activity against HIV1 clinical isolates", "assay_type": "functional, organism-based"}, "[29]": {"system": "Human immunodeficiency virus 1", "assay": "Antiviral activity against HIV1 PA113 harboring SP1 mutant gene relative to wild type", "assay_type": "functional"}, "[30]": {"system": "Human immunodeficiency virus 1", "assay": "Antiviral activity against HIV1 HXB2 harboring SP1 Q6H/V7A mutant gene relative to wild type", "assay_type": "functional"}, "[31]": {"system": "Human immunodeficiency virus 1", "assay": "Antiviral activity against HIV1 PA112 harboring SP1 mutant gene relative to wild type", "assay_type": "functional"}, "[32]": {"system": "Human immunodeficiency virus 1", "assay": "Antiviral activity against HIV1 PA104 harboring SP1 mutant gene relative to wild type", "assay_type": "functional"}, "[33]": {"system": "Human immunodeficiency virus 1", "assay": "Antiviral activity against HIV1 NL4.3 harboring SP1 L231M mutant gene relative to wild type", "assay_type": "functional"}, "[34]": {"system": "Human immunodeficiency virus 1", "assay": "Antiviral activity against HIV1 PA114 harboring SP1 mutant gene relative to wild type", "assay_type": "functional"}, "[35]": {"system": "Human immunodeficiency virus 1", "assay": "Antiviral activity against HIV1 HXB2 harboring SP1 V7A/T8delta mutant gene relative to wild type", "assay_type": "functional"}, "[36]": {"system": "Human immunodeficiency virus 1", "assay": "Antiviral activity against HIV1 HXB2 harboring SP1 V7A/T8N mutant gene relative to wild type", "assay_type": "functional"}, "[37]": {"system": "Human immunodeficiency virus 1", "assay": "Antiviral activity against HIV1 NL4.3 harboring SP1 mutant gene relative to wild type", "assay_type": "functional"}, "[38]": {"system": "Human immunodeficiency virus 1", "assay": "Antiviral activity against HIV1 NL4.3 harboring SP1 Q6H mutant gene relative to wild type", "assay_type": "functional"}, "[39]": {"system": "Human immunodeficiency virus 1", "assay": "Antiviral activity against HIV1 PA116 harboring SP1 mutant gene relative to wild type", "assay_type": "functional"}, "[40]": {"system": "Human immunodeficiency virus 1", "assay": "Antiviral activity against HIV1 NL4.3 harboring SP1 T8A mutant gene relative to wild type", "assay_type": "functional"}, "[41]": {"system": "Human immunodeficiency virus 1", "assay": "Antiviral activity against HIV1 HXB2 harboring SP1 V7A mutant gene relative to wild type", "assay_type": "functional"}, "[42]": {"system": "Human immunodeficiency virus 1", "assay": "Antiviral activity against HIV1 PA101 harboring SP1 mutant gene relative to wild type", "assay_type": "functional"}, "[43]": {"system": "Human immunodeficiency virus 1", "assay": "Antiviral activity against HIV1 NL4.3 harboring SP1 V7A mutant gene relative to wild type", "assay_type": "functional"}, "[44]": {"system": "Human immunodeficiency virus 1", "assay": "Antiviral activity against HIV1 HXB2 harboring SP1 V7M mutant gene relative to wild type", "assay_type": "functional"}}, "note": "pIC50: −log10 of the molar value.", "data": [{"molecule": "C=C(C)[C@@H]1CC[C@]2(C(=O)O)CC[C@]3(C)[C@H](CC[C@@H]4[C@@]5(C)CC[C@H](OC(=O)CC(C)(C)C(=O)O)C(C)(C)[C@@H]5CC[C@]43C)[C@@H]12", "note": "[BEVIRIMAT]", "values": [{"measurement": "fold change (FC)", "setting": "[1]", "value": ">111"}, {"measurement": "fold change (FC)", "setting": "[2]", "value": 0.9}, {"measurement": "fold change (FC)", "setting": "[3]", "value": ">116.6"}, {"measurement": "fold change (FC)", "setting": "[4]", "value": ">144.3"}, {"measurement": "fold change (FC)", "setting": "[5]", "value": 2.3}, {"measurement": "fold change (FC)", "setting": "[6]", "value": 10.9}, {"measurement": "fold change (FC)", "setting": "[7]", "value": ">77.5"}, {"measurement": "fold change (FC)", "setting": "[8]", "value": ">132.3"}, {"measurement": "fold change (FC)", "setting": "[9]", "value": 52}, {"measurement": "fold change (FC)", "setting": "[10]", "value": 52.2}, {"measurement": "fold change (FC)", "setting": "[11]", "value": ">113.7"}, {"measurement": "fold change (FC)", "setting": "[12]", "value": ">119.5"}, {"measurement": "fold change (FC)", "setting": "[13]", "value": ">106.4"}, {"measurement": "fold change (FC)", "setting": "[14]", "value": 65.5}, {"measurement": "fold change (FC)", "setting": "[15]", "value": 0.9}, {"measurement": "fold change (FC)", "setting": "[16]", "value": ">83.2"}, {"measurement": "fold change (FC)", "setting": "[17]", "value": ">125.4"}, {"measurement": "fold change (FC)", "setting": "[18]", "value": ">119.5"}, {"measurement": "fold change (FC)", "setting": "[19]", "value": 9.8}, {"measurement": "fold change (FC)", "setting": "[20]", "value": 25.3}, {"measurement": "fold change (FC)", "setting": "[21]", "value": ">122.5"}, {"measurement": "fold change (FC)", "setting": "[22]", "value": ">125.4"}, {"measurement": "fold change (FC)", "setting": "[23]", "value": ">125.4"}, {"measurement": "fold change (FC)", "setting": "[24]", "value": 5.6}, {"measurement": "fold change (FC)", "setting": "[25]", "value": 1.7}, {"measurement": "fold change (FC)", "setting": "[26]", "value": 1.9}, {"measurement": "fold change (FC)", "setting": "[27]", "value": 1.5}, {"measurement": "pIC50", "setting": "[28]", "value": 8.00}, {"measurement": "fold change (FC)", "setting": "[29]", "value": 2.3}, {"measurement": "fold change (FC)", "setting": "[30]", "value": ">115.1"}, {"measurement": "fold change (FC)", "setting": "[31]", "value": 1.9}, {"measurement": "fold change (FC)", "setting": "[32]", "value": 9.3}, {"measurement": "fold change (FC)", "setting": "[33]", "value": 37.6}, {"measurement": "fold change (FC)", "setting": "[34]", "value": ">106.1"}, {"measurement": "fold change (FC)", "setting": "[35]", "value": ">130.6"}, {"measurement": "fold change (FC)", "setting": "[36]", "value": ">157.2"}, {"measurement": "fold change (FC)", "setting": "[37]", "value": 1.1}, {"measurement": "fold change (FC)", "setting": "[38]", "value": 1.9}, {"measurement": "fold change (FC)", "setting": "[39]", "value": 4.5}, {"measurement": "fold change (FC)", "setting": "[40]", "value": 1.2}, {"measurement": "fold change (FC)", "setting": "[41]", "value": ">151.4"}, {"measurement": "fold change (FC)", "setting": "[42]", "value": ">76.1"}, {"measurement": "fold change (FC)", "setting": "[43]", "value": 45.8}, {"measurement": "fold change (FC)", "setting": "[44]", "value": ">113"}]}]}
